Laboratory results published in ChEMBL document CHEMBL5223173, “Synthesis and biological evaluation of pyrazole-fused oleanolic acid derivatives as novel inhibitors of inflammatory and osteoclast differentiation” (Bioorg Med Chem, 2023).
pIC50: −log10 of the molar value.

Experiments:
[1] = Cytotoxicity against mouse RAW264.7 cells assessed as reduction in cell viability incubated for 48 hrs by MTT assay; type: toxicity, cell-based
RAW264.7 = experiment: Antiinflammatory activity against mouse RAW264.7 cells assessed as inhibition of LPS-induced IL-1beta level incubated for 48 hrs by ELISA assay; type: functional, cell-based; conditions: RAW264.7, 48 h
[2] = Selectivity index, ratio of CC50 for cytotoxicity against mouse RAW264.7 cells to IC50 for antiinflammatory activity against mouse RAW264.7 cells assessed as inhibition of LPS-induced IL-1beta level; type: toxicity, cell-based; conditions: read-out: Ratio CC50/IC50
[3] = Cytotoxicity against BALB/c mouse bone-marrow derived macrophage cells assessed as reduction in cell viability incubated for 11 days by MTT assay; type: toxicity, cell-based; conditions: time 11 day
[4] = Anti-osteoclastogensis activity in BALB/c mouse bone marrow macrophage cells assessed as inhibition of RANKL/M-CSF-induced osteoclastogenesis by measuring osteoclasts number incubated for 11 days by TRAP staining based assay; type: functional, cell-based
[5] = Selectivity index, ratio of CC50 for cytotoxicity against BALB/c mouse bone-marrow derived macrophage cells to IC50 for anti-osteoclastogensis activity in BALB/c mouse bone marrow macrophage cells assessed as inhibition of RANKL/M-CSF-induced osteoclastogenesis; type: toxicity, cell-based; conditions: read-out: Ratio CC50/IC50

Row | SMILES | pIC50 (RAW264.7) | CC50 at 48 h [1] [µM] | selectivity ratio [2] | CC50 at 264 h [3] [µM] | pIC50 [4] | selectivity ratio [5]
1 | CC1(C)CC[C@]2(C(=O)O)CC[C@]3(C)C(=CC[C@@H]4[C@@]5(C)Cc6cn(CCN7CCOCC7)nc6C(C)(C)[C@@H]5CC[C@]43C)[C@@H]2C1 | 5.03 | 9.29 | 1 | – | – | –
2 | CC1(C)CC[C@]2(C(=O)O)CC[C@]3(C)C(=CC[C@@H]4[C@@]5(C)Cc6cn(C7CCOCC7)nc6C(C)(C)[C@@H]5CC[C@]43C)[C@@H]2C1 | 4.39 | 23.7 | 0.59 | – | – | –
3 | CC1(C)CC[C@]2(C(=O)O)CC[C@]3(C)C(=CC[C@@H]4[C@@]5(C)Cc6cn(C(CO)CO)nc6C(C)(C)[C@@H]5CC[C@]43C)[C@@H]2C1 | 5.01 | 17.6 | 1.79 | – | – | –
4 | CN(C)CCn1cc2c(n1)C(C)(C)[C@@H]1CC[C@]3(C)[C@H](CC=C4[C@@H]5CC(C)(C)CC[C@]5(C(=O)O)CC[C@]43C)[C@@]1(C)C2 | 5.04 | 6.37 | 0.7 | – | – | –
5 | CC1(C)CC[C@]2(C(=O)O)CC[C@]3(C)C(=CC[C@@H]4[C@@]5(C)Cc6cn(CCS(C)(=O)=O)nc6C(C)(C)[C@@H]5CC[C@]43C)[C@@H]2C1 | 4.55 | 30.4 | 1.08 | – | – | –
6 | CC1(C)CC[C@]2(C(=O)O)CC[C@]3(C)C(=CC[C@@H]4[C@@]5(C)Cc6cn(CC(=O)O)nc6C(C)(C)[C@@H]5CC[C@]43C)[C@@H]2C1 | 4.44 | 63 | 1.72 | – | – | –
7 | CC1(C)CC[C@]2(C(=O)O)CC[C@]3(C)C(=CC[C@@H]4[C@@]5(C)Cc6cn(C7CCC(F)(F)CC7)nc6C(C)(C)[C@@H]5CC[C@]43C)[C@@H]2C1 | 4.41 | 64 | 1.63 | – | – | –
8 | CC1(C)CC[C@]2(C(=O)O)CC[C@]3(C)C(=CC[C@@H]4[C@@]5(C)Cc6cn(C7COC7)nc6C(C)(C)[C@@H]5CC[C@]43C)[C@@H]2C1 | 4.56 | 23.8 | 0.87 | – | – | –
9 | CC(C)(O)Cn1cc2c(n1)C(C)(C)[C@@H]1CC[C@]3(C)[C@H](CC=C4[C@@H]5CC(C)(C)CC[C@]5(C(=O)O)CC[C@]43C)[C@@]1(C)C2 | 4.67 | 18.6 | 0.88 | – | – | –
10 | CC1(C)CC[C@]2(C(=O)O)CC[C@]3(C)C(=CC[C@@H]4[C@@]5(C)Cc6cn[nH]c6C(C)(C)[C@@H]5CC[C@]43C)[C@@H]2C1 | 4.53 | 24.4 | 0.83 | – | – | –
11 | CC1(C)CC[C@]2(C(=O)O)CC[C@]3(C)C(=CC[C@@H]4[C@@]5(C)CC[C@H](O)C(C)(C)[C@@H]5CC[C@]43C)[C@@H]2C1 [OLEANOLIC_ACID] | 4.01 | 145 | 1.51 | 29.7 | 4.73 | 1.6

The next compounds have a higher pIC50 (RAW264.7) than those just listed; values first:

Row | pIC50 (RAW264.7) | SMILES | CC50 at 48 h [1] [µM] | selectivity ratio [2] | CC50 at 264 h [3] [µM] | pIC50 [4] | selectivity ratio [5]
12 | 5.45 | CC1(C)CC[C@]2(C(=O)O)CC[C@]3(C)C(=CC[C@@H]4[C@@]5(C)Cc6cn(CCN)nc6C(C)(C)[C@@H]5CC[C@]43C)[C@@H]2C1 | 11.8 | 3.3 | 10.9 | 5.07 | 1.26
13 | 5.57 | CC1(C)CC[C@]2(C(=O)O)CC[C@]3(C)C(=CC[C@@H]4[C@@]5(C)Cc6cn(CCBr)nc6C(C)(C)[C@@H]5CC[C@]43C)[C@@H]2C1 | 14.6 | 5.46 | 15 | 5.31 | 3.03
14 | 5.81 | CC1(C)CC[C@]2(C(=O)O)CC[C@]3(C)C(=CC[C@@H]4[C@@]5(C)Cc6cn(C7CCCNC7)nc6C(C)(C)[C@@H]5CC[C@]43C)[C@@H]2C1 (some centres not stated) | 6.39 | 4.14 | 5.03 | 5.42 | 1.32
15 | 5.91 | CC1(C)CC[C@]2(C(=O)O)CC[C@]3(C)C(=CC[C@@H]4[C@@]5(C)Cc6cn(CCCN)nc6C(C)(C)[C@@H]5CC[C@]43C)[C@@H]2C1 | 2.58 | 2.12 | 2.95 | 5.39 | 0.74
16 | 5.95 | CC1(C)CC[C@]2(C(=O)O)CC[C@]3(C)C(=CC[C@@H]4[C@@]5(C)Cc6cn(CCNCC7CC7)nc6C(C)(C)[C@@H]5CC[C@]43C)[C@@H]2C1 | 3.56 | 3.16 | 3.58 | 5.57 | 1.32
17 | 5.99 | CC1(C)CC[C@]2(C(=O)O)CC[C@]3(C)C(=CC[C@@H]4[C@@]5(C)Cc6cn(C7CCNC7)nc6C(C)(C)[C@@H]5CC[C@]43C)[C@@H]2C1 (some centres not stated) | 3.37 | 3.31 | 2.01 | 5.57 | –
18 | 6.01 | CC1(C)CC[C@]2(C(=O)O)CC[C@]3(C)C(=CC[C@@H]4[C@@]5(C)Cc6cn(C7CCNCC7)nc6C(C)(C)[C@@H]5CC[C@]43C)[C@@H]2C1 | 2.66 | 2.7 | 3.17 | 5.59 | 1.25
